Laboratory results taken from patent US20100137344A1, “INDUCTION OF ANALGESIA IN NEUROPATHIC PAIN” (University Court of the University of Edinburgh, priority 2006, published 2010).

Key:
Assay type in all cases: in vivo, rat
[1] = test system: naïve rats; experiment: Intrathecal application in naïve rats, behavioural reflex testing (PWL, PWT); conditions: naïve animals, cinnamaldehyde 75 nmol, allicin 25 nmol
Method: (§1) Thermal sensitivity was assessed by measuring paw withdrawal latency (PWL, s) in response to a noxious thermal stimulus (Hargreaves' thermal stimulator, Linton Instrumentation, Diss, UK) directed to the hindpaw mid-plantar glabrous surface. Mechanical sensitivity was recorded as the paw withdrawal threshold (PWT, mN/mm^2) to calibrated von Frey filaments (Stoelting, Ill., US), as previously described^[39]. Sensitivity to noxious cold was assessed by placing animals in a waterbath with an aluminium floor containing 1 cm deep 4° C. water and counting the time the paw was held suspended over a 20 s period.
(§2) The following drugs were applied intrathecally in a 50 μl volume of saline-based vehicle at 37° C.: icilin (2.5-200 μM in saline with 0.2% dimethylformamide, DMF), LY 341495 (100 μM in saline), UBP 1112 (200 μM in saline), 2R,4R-APDC ((2R, 4R)-4-aminopyrrolidine-2,4-dicarboxylate), 300 μM in saline), ACPT-III ((1R,3R,4S)-1-aminocyclopentane-1,3,4-tricarboxylic acid), 3 mM in saline), AP-4, ((L-(1)-2-amino-4-phosphonobutyric acid), 3 mM in saline), naloxone (0.5 mM in saline), NMDA (75 μM in saline) and ACPC (1-aminocyclopropanecarboxylic acid, 15 μM in saline) (Tocris Cookson, Bristol, UK), (−)-menthol (1R,2S,5R-(−)-menthol, 4 mM in saline), cinnamaldehyde (1.5 mM in saline) and Ruthenium Red (5 μM in saline) (Sigma-Aldrich Co. Ltd, UK) and allicin (0.5 mM in saline with 0.5% DMF) and diallyl disulphide (DADS, 1 mM in saline with 0.5% DMF) (LKT Laboratories Inc., St Paul, Minn., USA). Drugs were injected into the L5/6 intrathecal space under brief halothane anaesthesia, using a 25-gauge needle microsyringe (BD Biosciences, Oxford, UK), as described previously^[39] in animals that were at peak levels of behavioural sensitisation. Behavioural reflex testing commenced 15 min following injection to allow recovery from anaesthesia^[40,41,42] and continued every 5 min thereafter until readings returned to baseline levels (n=6 in each case). We, and others^[40,41,42] find complete recovery from anaesthetic by 15 minutes. All appropriate controls were carried out to eliminate the possibility of effects due to vehicle or to injection procedure.
(§3) The TRPM8 channel activators, icilin and (−)-menthol were tested in CCI and naïve animals. The effects of icilin were additionally assessed in animals with CFA-induced inflammation or with lysolecithin-induced demyelination. Icilin was also co-administered with the μ-opioid receptor antagonist naloxone, the Group II metabotropic glutamate receptor (mGluR) antagonist, LY 341495, or the Group III mGluR antagonist, UBP 1112. The effects of these antagonists alone as well as effects of the Group II mGluR agonist, 2R,4R-APDC and the Group III mGluR agonists, ACPT-III and AP-4, were assessed in CCI animals. The TRPA1 channel activator, cinnamaldehyde, alone and with icilin, was tested in CCI animals and in naïve animals. Further TRPA1 channel activators, allicin and diallyl disulphide were assessed in naïve animals. Both icilin and cinnamaldehyde effects in CCI animals were also investigated in the additional presence of Ruthenium Red.

[2] = test system: rats with chronic constriction injury (CCI) to sciatic nerve; experiment: Intrathecal application in CCI rats, behavioural reflex testing (PWL, PWT); conditions: for mean percentage reversal of sensitisation by (−)-menthol with antagonist, PWL / mean percentage reversal of sensitisation by (−)-menthol with antagonist, PWT: (−)-menthol 200 nmol plus intrathecal antagonist, 20-30 minutes post-injection; for effect on analgesia by intrathecal icilin: LY 341495 5 nmol, UBP 1112 10 nmol co-administered with icilin 10 nmol; for effect of antagonist alone: intrathecal, data not shown
Method: Pain models were generated under halothane anaesthesia (Zeneca, Cheshire, UK). For the chronic constriction injury (CCI) model of neuropathic pain, four ligatures were tied loosely to constrict the sciatic nerve at mid-thigh level (as described previously^[39]). An inflammatory pain model was generated by injecting 100 μl of Complete Freund's Adjuvant (CFA, Sigma-Aldrich Ltd) into the ventral surface of the right hindpaw^[39]. A model of peripheral demyelination-induced pain was produced by focal application of lysolecithin to the sciatic nerve^[40]. Peak behavioural sensitisation was observed post-surgically between days 10-16 for CCI, 1-3 for CFA, and 7-14 for lysolecithin, when pharmacological and electrophysiological experiments and tissue removal were conducted.
as §1, §2, §3

[3] = test system: naïve rats; experiment: Topical application to paws of naïve rats, behavioural reflex testing (PWL, PWT); conditions: topical cinnamaldehyde 1.5 mM; bilateral
Method: as §1
(§4) Icilin was applied at concentrations of 2.5-500 μM (in water with 0.2% DMF), by placing CCI or naïve rats unrestrained for 5 min in a 1 cm deep waterbath (sufficient to cover paws), which was thermostatically controlled to a temperature of 30° C., or by very lightly anaesthetising rats and immersing hindpaws in small tubes containing 5 ml icilin (500 μM-5 mM, with a vehicle of 45% dimethylformamide in 0.2% aqueous Tween 80) for 5 min, followed by sensory testing for 60-80 mins. The effects of (−)-menthol and its stereoisomers isomenthol (1S,2R,5R-menthol,) and (+)-menthol (1S,2R,5S(+)-menthol) (4-16 mM in 80% ethanol) were also assessed. Relevant vehicles were always assessed in similar experiments. As a contrast, the effect of cinnamaldehyde (1.5 mM in water) and the effect of cinnamaldehyde with additional icilin (80 μM in water with 0.2% DMF) were assessed in naïve animals. The effects of icilin (80 μM) were further assessed in CCI animals that had undergone antisense and mis-sense treatment for knockdown of TRPM8 or immediately following intrathecal injection of either LY 341495 or UBP 1112. […] The effects of brief paw immersion at different temperatures (10-22° C. for 5 min) on CCI rats were assessed by mechanical testing. The effects of intrathecal LY 341495 or UBP 1112 on the reversal of ipsilateral sensitisation in CCI following a 16° C. cool challenge for 5 min were measured. Reflex testing commenced 5 minutes following challenge, unless animals had been anaesthetised, in which case 15 minutes was allowed for recovery. Six replicate animals were tested in all pharmacological experiments.

[4] = test system: rats sensitised by the TRPA1 activator cinnamaldehyde; experiment: Cinnamaldehyde-induced sensitisation and its reversal by icilin (PWL, PWT); conditions: difference from prior baseline, no icilin
Method: as §1, §2, §3
Icilin was applied at concentrations of 2.5-500 μM (in water with 0.2% DMF), by placing CCI or naïve rats unrestrained for 5 min in a 1 cm deep waterbath (sufficient to cover paws), which was thermostatically controlled to a temperature of 30° C., or by very lightly anaesthetising rats and immersing hindpaws in small tubes containing 5 ml icilin (500 μM-5 mM, with a vehicle of 45% dimethylformamide in 0.2% aqueous Tween 80) for 5 min, followed by sensory testing for 60-80 mins. The effects of (−)-menthol and its stereoisomers isomenthol (1S,2R,5R-menthol,) and (+)-menthol (1S,2R,5S(+)-menthol) (4-16 mM in 80% ethanol) were also assessed. Relevant vehicles were always assessed in similar experiments. As a contrast, the effect of cinnamaldehyde (1.5 mM in water) and the effect of cinnamaldehyde with additional icilin (80 μM in water with 0.2% DMF) were assessed in naïve animals. […]

[5] = test system: rats with chronic constriction injury (CCI); experiment: Cooling (16° C.)-induced analgesia in CCI rats with intrathecal mGluR antagonists; conditions: skin cooling to 16° C.; intrathecal LY 341495 5 nmol or UBP 1112 10 nmol
Method: as §4, with “Reflex testing commenced 5 minutes following challenge, unless animals had been anaesthetised, in which case 15 minutes was allowed for recovery. Six replicate animals were tested in all pharmacological experiments.” left out

[6] = test system: rats with chronic constriction injury (CCI) to sciatic nerve; experiment: Topical application to paws of CCI rats, behavioural reflex testing (thermal PWL, mechanical PWT); conditions: icilin 200 μM topical; mGluR antagonists intrathecally
[7] = test system: dorsal horn neurons; experiment: Extracellular recordings of single spinal dorsal horn neurons in CCI animals (brush-evoked firing)
Method: Peripheral: Recordings of saphenous (sensory) nerve were made in naïve animals (n=7) to assess the effects of topical icilin on primary afferents. In addition, recordings were carried out on animals which had undergone TRPM8 antisense or mis-sense treatment beginning 4-5 days previously. Rats were anaesthetised (with 0.6 ml 25% urethane/100 g, i.p.) and the saphenous nerve was exposed and dissected from its associated vein and artery. Further dissection under liquid paraffin enabled identification of afferent preparations comprising a small number of fibres. The conduction velocity of single identified afferent fibres was determined using bipolar electrodes and the peripheral stimulus technique^[43]. Following isolation of preparations, icilin (200 μM in water with 0.2% DMF), (−)-menthol (4 mM in 25% ethanol) resiniferatoxin (1 mM in ethanol) or vehicle alone were applied to the hindlimb receptive fields and neuronal responses recorded using the Chart programme (version 3.6). Central: Recordings of spinal dorsal horn neurons were made in CCI animals, as described previously^[39]. Following halothane induction, the jugular vein and trachea were canulated and intravenous anaesthetic delivered: α-chloralose ([…], Fisher) and urethane ([…], Sigma), with small supplementary doses of α-chloralose as required throughout the experiment. Core body temperature was maintained at 37-38° C. by means of a thermostatically controlled heated blanket. The animal was placed in a stereotaxic frame, and the thoracolumbar spinal column was supported using three pairs of swan-necked clamps. A laminectomy was performed at L2-L5, and agar (2% in saline at 37° C.) was delivered over exposed cord to increase mechanical stability. Above the recording region the agar and spinal cord dura were removed and liquid paraffin poured into the pool. Extracellular recordings were made from single multireceptive neurons in laminae I-IV through the centre barrel of a seven-barrelled glass microelectrode filled with 4M NaCl (tip-diameter […], DC resistance 5-8 MΩ). The receptive fields of hair-follicle innervated neurons on the distal hindlimb were identified by an innocuous brush stimulus^[39]. Icilin (200 μM in water with 0.2% DMF) was applied peripherally to the receptive field of individual recorded neurons, and the effect on neuronal response to a rotating brush was recorded and analysed using Spike2 programme (Version 3.2, CED). The Group III mGluR antagonist UBP 1112 (20 mM in water), pH 8.5, and control 1M NaCl, pH 8.5 were ionophoresed from the side barrels of the electrode using currents of between 20 nA and 80 nA (Neurophore BH2 ionophoresis system, Medical Systems, Great Neck, N.Y.) to measure effects on neuronal response to icilin.

Structure (SMILES) | reduction in PWT ([1]; diallyl disulphide 50 mmol) [%] | mean percentage reversal of ipsilateral CCI-induced reductions in PWT caused by cooling [5] [%] | mean percentage reversal of sensitisation by (−)-menthol with antagonist, PWL [2] [%] | mean percentage reversal of sensitisation by (−)-menthol with antagonist, PWT [2] [%] | effect on analgesia by intrathecal icilin [2] | effect of antagonist alone [2] | effect on reversal of thermal and mechanical sensitisation by topical icilin [6] | other results
O=CC=Cc1ccccc1 [cinnamaldehyde] | 41.9±6.7 |  |  |  |  |  |  | reduction in PWL ([1]; diallyl disulphide 50 mmol): 36.9±7.9%; reflex responsiveness in thermal and mechanical tests ([2]; cinnamaldehyde 75 nmol intrathecal, contralateral as well as ipsilateral to nerve injury): significantly increased reflex responsiveness; mean decrease in PWL [3]: 32.0±8.6%; mean decrease in PWT [3]: 20.2±8.2%; PWL (s) difference from control (no drug) ([4]; cinnamaldehyde intrathecal): 5.9 ± 0.9 s; PWT (mN/mm^2) difference from control (no drug) ([4]; cinnamaldehyde intrathecal): 2022.6 ± 375.4 mN/mm^2; PWL (s) difference from control (no drug) ([4]; cinnamaldehyde topical): 5.0 ± 1.5 s; PWT (mN/mm^2) difference from control (no drug) ([4]; cinnamaldehyde topical): 1002.0 ± 316.8 mN/mm^2
N[C@](CC1c2ccccc2Oc2ccccc21)(C(=O)O)[C@H]1C[C@@H]1C(=O)O [LY 341495] |  | 0.0±0.0 | 22.0±6.9 | 7.1±7.1 | prevented the effect of icilin | Neither LY 341495 nor UBP 1112 had any effects alone | prevented | 
C=CCSSCC=C [diallyl disulphide] | 28.5±6.2 |  |  |  |  |  |  | reduction in PWL ([1]; diallyl disulphide): 25.9±7.0%
Cc1cc(C(C)(N)C(=O)O)ccc1P(=O)(O)O (stereo not shown) [UBP 1112] |  | 0.0±0.0 | 9.2±6.9 | 0.0±0.0 | prevented the effect of icilin | Neither LY 341495 nor UBP 1112 had any effects alone | prevented | brush-induced firing rate with icilin plus UBP 1112 ([7]; UBP 1112 ionophoresed at 20-60 nA, icilin 200 μM topical): 80.2±9.3 % of control values; effect of UBP 1112 alone on neuronal responses ([7]; ionophoresis): had no effect alone
